Results published in patent publication US6075121A, “Modified peptide and peptide libraries with protease resistance, derivatives thereof and methods of producing and screening such” (Chiron Corporation, priority 1995, dated 2000).
Residues, ends and D or L forms follow the SMILES beside them. *: point of attachment. Fmoc = O=C(OCC1c2ccccc2-c2ccccc21)*

What was measured:
[1] = target: T1, dihydrofolate reductase (DHFR) found in Pneumocystis carinii (Pneumocystis carinii, UniProt P16184); details: stated without a test; cited from earlier work
T1 sequence (P16184 1-206): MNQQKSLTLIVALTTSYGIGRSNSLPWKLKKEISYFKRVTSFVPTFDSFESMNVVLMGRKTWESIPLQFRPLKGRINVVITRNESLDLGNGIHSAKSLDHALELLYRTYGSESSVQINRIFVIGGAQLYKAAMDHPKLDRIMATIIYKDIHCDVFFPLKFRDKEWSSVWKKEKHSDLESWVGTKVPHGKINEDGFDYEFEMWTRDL

trypsin [2] = target: T2, trypsin (Bos taurus, UniProt P00760); test: Proteolysis of peptoids and peptides by trypsin; format: in vitro ADME
T2 construct: gene PRSS1
T2 sequence (P00760 24-246): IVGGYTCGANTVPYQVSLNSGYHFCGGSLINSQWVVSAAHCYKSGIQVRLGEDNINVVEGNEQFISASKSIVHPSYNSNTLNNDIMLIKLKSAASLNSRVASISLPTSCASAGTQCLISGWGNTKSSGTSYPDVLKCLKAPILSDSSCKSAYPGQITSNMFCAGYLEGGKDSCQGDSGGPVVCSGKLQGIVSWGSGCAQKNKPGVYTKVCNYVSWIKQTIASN
Excerpt: (§1) Both compounds were purified to homogeneity by HPLC.

chymotrypsin [3] = target: chymotrypsin (Bos taurus, UniProt P00766); test: Proteolysis of peptoids and peptides by chymotrypsin; format: in vitro ADME
Excerpt: as §1

trypsin [4] = test system: T3, trypsin; test: Proteolysis of peptoids and peptides by trypsin; format: in vitro ADME; details: trypsin (isolated protease) in Tris buffer, trypsin, 37° C., pH 8.0, read-out: % Area at 280 nm Remaining of Parent Peak by RP-HPLC
T3 construct: gene PRSS1
Excerpt: as §1

chymotrypsin [5] = test: Proteolysis of peptoids and peptides by chymotrypsin; format: in vitro ADME; details: chymotrypsin (isolated protease) in Tris buffer, chymotrypsin, 37° C., pH 8.0, read-out: % Area at 280 nm Remaining of Parent Peak by RP-HPLC
Excerpt: as §1

[6] = test system: bacterial dihydrofolate reductases; details: stated without a test; cited from earlier work
[7] = test system: antiserum S259-8 (epitope KDFL); test: Antibody binding of peptides and peptoids on pins, serum S259-8; set-up: key: A `P` represents a peptide sequence which gave the highest 6-8 signals; a `*` represents a peptoid sequence which scored in the top 6-10; details: serum S259-8, epitope KDFL; for antibody binding signal rank, peptide sequence: peptide on pins; for antibody binding signal rank, peptoid sequence: peptoid on pins
Protocol: (§2) Peptoids and peptides were prepared on the pins and tested under standard conditions. The assay is best interpreted qualitatively, and the chart below gives a summary of data from three antisera tested. They are representative for the twelve sera which gave signals with both the peptoids and peptides. A `P` represents a peptide sequence which gave the highest 6-8 signals. Likewise, a `*` represents a peptoid sequence which scored in the top 6-10. For the three sera tested, 33/120 sequences are represented which lends support to the premise that there is selective binding shown by the antibody.

[8] = test system: antiserum S259-6 (epitope DFLEKI); test: Antibody binding of peptides and peptoids on pins, serum S259-6; set-up: key: A `P` represents a peptide sequence which gave the highest 6-8 signals; a `*` represents a peptoid sequence which scored in the top 6-10; details: serum S259-6, epitope DFLEKI
Protocol: as §2

## COc1cc(Cc2cnc(N)nc2N)cc(OC)c1NC(=O)CCC(=O)O [2,4-diamino-5-[3,5-di-methoxy-4-(3-hydrocarboxy-1-oxopropylamino)benzyl]pyrimidine]
[1]
  inhibitory activity on DHFR: inhibitory activity specific for the enzyme dihydrofolate reductase (DHFR) found in Pneumocystis carinii

## CC(C)C[C@H](NC(=O)OCC1c2ccccc2-c2ccccc21)C(=O)N[C@@H](CC(=O)O)C(=O)N[C@@H](Cc1ccccc1)C(=O)N[C@@H](CO)C(=O)N[C@@H](CCCCN)C(=O)NCC(=O)O [PEPTIDE, FMOC-LDFSKG-OH] (Fmoc-LDFSKG-OH)
Trypsin [2]
  number of places cleaved by trypsin: only one place
Trypsin [2]; 37° C., pH 8.0
  time to complete cleavage by trypsin: ≤ 5 min
Chymotrypsin [3]
  number of chymotrypsin cleavage sites: at least two cleavage sites
Chymotrypsin [3]; after 10 minutes
  cleavage completed at the preferential chymotrypsin site: ~ 60%
Chymotrypsin [3]; after three hours
  cleavage at the second chymotrypsin site: not completely cleaved

## CC(C)CN(CC(=O)N(CC(=O)O)CC(=O)N(CC(=O)N(CCO)CC(=O)N(CCN)CC(=O)NCC(=O)O)Cc1ccccc1)C(=O)OCC1c2ccccc2-c2ccccc21 [PEPTOID, FMOC-L*D*F*S*K*G-OH]
Trypsin [4]; 5 min
  remaining at 5 min, 0.48 mg/mL: 100%
Trypsin [4]; 10 min
  remaining at 10 min, 0.48 mg/mL: 100%
Trypsin [4]; 3 hours
  remaining at 3 h, 0.48 mg/mL: 100%
Trypsin [2]; all reaction conditions (trypsin, chymotrypsin, control)
  change of substrate under proteolysis conditions: remained unchanged
Chymotrypsin [5]; 5 min
  remaining at 5 min, 0.48 mg/mL: 100%
Chymotrypsin [5]; 10 min
  remaining at 10 min, 0.48 mg/mL: 100%
Chymotrypsin [5]; 3 hours
  remaining at 3 h, 0.48 mg/mL: 100%

## COc1cc(Cc2cnc(N)nc2N)cc(OC)c1OC [Trimethoprim]
[6]
  inhibition of dihydrofolate reductases: potent inhibitor

## DFLKS
[7]
  antibody binding signal rank, peptide sequence: P

## DFLSK
[7]
  antibody binding signal rank, peptide sequence: P
[8]
  antibody binding signal rank, peptide sequence: P

## DKFSL
[8]
  antibody binding signal rank, peptide sequence: P

## FSKLD
[8]
  antibody binding signal rank, peptide sequence: P

## KDFLS
[7]
  antibody binding signal rank, peptide sequence: P
[8]
  antibody binding signal rank, peptide sequence: P

## KFLDS
[8]
  antibody binding signal rank, peptide sequence: P

## KLSFD
[7]
  antibody binding signal rank, peptide sequence: P
  antibody binding signal rank, peptoid sequence: *

## KSDFL
[7]
  antibody binding signal rank, peptide sequence: P

## LFKDS
[8]
  antibody binding signal rank, peptide sequence: P

## LKFDS
[8]
  antibody binding signal rank, peptide sequence: P

## LKSFD
[7]
  antibody binding signal rank, peptide sequence: P
  antibody binding signal rank, peptoid sequence: *

## SDFLK
[7]
  antibody binding signal rank, peptide sequence: P
  antibody binding signal rank, peptoid sequence: *
[8]
  antibody binding signal rank, peptide sequence: P

## SFLDK
[7]
  antibody binding signal rank, peptide sequence: P

## SKDFL
[7]
  antibody binding signal rank, peptide sequence: P
